In patent US10712352B2, “Methods and devices for assessing in vivo toxic levels of bilirubin and diagnosing increased risk of bilirubin neurotoxicity” (NEOMETRIX DX, priority 2018, dated 2020):

Tests used:
[1] = molecular target: human albumin (Homo sapiens, UniProt P02768); assay: Bilirubin binding before and after adding sulfisoxazole to a bilirubin/human albumin sample
Excerpt: The clinically relevant quantification of bilirubin binding are the mass action variables above (BTotal, BFree, BTotal_2, BFree_2, BTmax, and KA) constitute a Bilirubin Binding Panel (BBP). Optionally, BTmax and KA can be used to determine whether a newborn binds bilirubin normally.
Measuring Total and Unbound Bilirubin (BTotal and BFree): The peroxidase test (see, e.g., Jacobsen J, Wennberg R P. Determination of unbound bilirubin in the serum of newborns. Clin Chem 1974; 20:783-789) measures both BTotal and BFree. This test is used clinically in Japan. In alternative embodiments, novel modifications of methods as provided herein measure BFree at two horseradish peroxidase levels to accurately determine BFree and measure BTotal and BFree before and after bilirubin enrichment of a plasma or other blood sample to provide BTmax and KA to complete the Bilirubin Binding Panel (BBP) described herein. […] The peroxidase test is based on the horse radish peroxidase (HRP) catalyzed oxidation of bilirubin by peroxide. Bilirubin absorbs light maximally at 440 nm when no albumin is present and at 460 nm when bound to albumin. Bilirubin bound to albumin is protected from oxidation and only BFree is oxidized. The light absorbance at 440 nm (no albumin) or 460 nm (albumin present) decreases as bilirubin is oxidized, and the reaction rate constant, Kp, can be determined using known bilirubin and HRP concentrations in solutions without albumin present (i.e. all the bilirubin is unbound or “free”) as shown in the equivalent velocity equations below: […]
BTotal is calculated from the absorbance prior to adding HRP and H2O2 and BFree from the change in absorbance following addition of HRP/H2O2 as further described below. […]
BTotal is calculated by dividing the initial absorbance by the known extinction coefficient (0.827/cm light path length for BTotal in […]) and BFree is calculated from the change in absorbance at 460 nm after adding HRP/H2O2. […]

[2] = molecular target: human defatted albumin (Homo sapiens, UniProt P02768); assay: Bilirubin binding isotherm in artificial serum containing human defatted albumin (peroxidase test); details: albumin 3.0 g/dL
Procedure: FIG. 5 illustrates the change in BFree (black dots) as BTotal increases. The negative intercept of 1/BFree versus 1/BTotal, i.e. KA, is […] and the negative slope/intercept, i.e. BTmax, is 37.5 mg/dL. The BTmax and KA in Table 3 are calculated as described above using the lowest BTotal (8.3 mg/dL) and BFree (0.51 μg/dL) paired with each of the other five measures of BTotal and BFree. The mean BTmax and KA of all 15 possible pairings in TABLE 4 are 39.1 mg/dL and 0.56 dL/μg, respectively.
Non-linear regression analysis of the molar ratios versus the BFree from TABLE 3 were used to determine the best fit K1 (0.93 dL/μg) and K2 (0.04 dL/μg) using the stoichiometric equation
(§1) This test is used clinically in Japan.
(§2) BFree is obtained by measuring BFss at the additional HRP concentration and using […]

[3] = system: plasma bilirubin binding sites (e.g. albumin); assay: Bilirubin binding panel (peroxidase test, before and after bilirubin enrichment) in plasma of 31 newborns <28 weeks gestation; set-up: species or system human
Excerpt: [formula] can be readily solved by for BTmax and KA by measuring BTotal and BFree before and after enrichment of the sample with bilirubin to provide BTotal, BFree, and BTotal_2, BFree_2. These provide two equations with two unknowns (BTmax and KA), that can be solved for BTmax as shown below:
as §1, §2

Chain of human defatted albumin (P02768 25-609): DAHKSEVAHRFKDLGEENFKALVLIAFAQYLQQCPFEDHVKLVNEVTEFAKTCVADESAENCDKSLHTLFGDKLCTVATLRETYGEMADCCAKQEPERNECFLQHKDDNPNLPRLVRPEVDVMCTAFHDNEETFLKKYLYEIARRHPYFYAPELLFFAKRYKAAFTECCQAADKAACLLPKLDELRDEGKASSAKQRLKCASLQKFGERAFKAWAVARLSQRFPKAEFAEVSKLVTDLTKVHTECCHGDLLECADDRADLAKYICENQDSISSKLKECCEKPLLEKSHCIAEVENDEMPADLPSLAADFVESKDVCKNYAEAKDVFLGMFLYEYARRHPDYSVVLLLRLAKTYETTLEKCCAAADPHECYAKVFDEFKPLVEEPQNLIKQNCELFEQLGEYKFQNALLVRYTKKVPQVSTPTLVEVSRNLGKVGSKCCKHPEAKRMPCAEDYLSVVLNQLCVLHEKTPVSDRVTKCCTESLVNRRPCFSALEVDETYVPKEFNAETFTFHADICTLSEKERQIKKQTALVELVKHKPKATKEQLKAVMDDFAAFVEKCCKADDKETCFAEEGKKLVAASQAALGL
Chain of human albumin (P02768 25-609): as above

Cc1noc(NS(=O)(=O)c2ccc(N)cc2)c1C [+ sulfa, sulfisoxazole]
KA ([1]; 3.0 g/dL albumin, without or with sulfa): 0.20 dL/µg | effect of adding sulfisoxazole on bilirubin BFree ([1]; bilirubin/human albumin sample, 3.0 g/dL albumin): about doubles the BFree

C=CC1=C(C)/C(=C/c2[nH]c(Cc3[nH]c(/C=C4\NC(=O)C(C)=C4C=C)c(C)c3CCC(=O)O)c(CCC(=O)O)c2C)NC1=O [bilirubin]
BFree ([2]; BTotal 8.3 mg/dL (BTotal/ATotal molar ratio 0.31)): 0.51 µg/dL | BFree ([2]; BTotal 11.7 mg/dL (molar ratio 0.44)): 0.92 µg/dL | BFree ([2]; BTotal 18.5 mg/dL (molar ratio 0.69)): 1.70 µg/dL | BFree ([2]; BTotal 22.2 mg/dL (molar ratio 0.83)): 2.39 µg/dL | BFree ([2]; BTotal 28.3 mg/dL (molar ratio 1.06)): 6.05 µg/dL | BFree ([2]; BTotal 31.3 mg/dL (molar ratio 1.18)): 9.88 µg/dL | BFree ([1]; human, 8.3 mg/dL, pH 7.4): 0.51 µg/dL | BFree_2 (free bilirubin after bilirubin enrichment) ([3]; 25th-75th percentile, after enrichment): 1.1 to 3.3 µg/dL | BFree_2 (free bilirubin after bilirubin enrichment) ([3]; mean, after enrichment (mean BTotal_2 13.8 mg/dL)): 2.51 µg/dL | BFree_2 (free bilirubin after bilirubin enrichment) ([3]; median, after enrichment (median BTotal_2 13.7 mg/dL)): 1.93 µg/dL | BFree_2 (free bilirubin after bilirubin enrichment) ([3]; range, after enrichment (BTotal_2 6.3-23.0 mg/dL)): 0.42 to 10.61 µg/dL
